Source: patent US20100104580A1, “Altered Immunogenic Landscape in HIV-1 Envelope Proteins” (priority 2008, published 2010)

Columns and labels:
[1] = test system: gp 120 from two other HIV-1 strains; assay: Affinity for gp120 of other strains; assay type: binding
From the text: HIV-1YU2gp120 was produced as described previously in Drosophila S2 cells (Biorn et al., 2004, Biochem. 43:1928-1938; Pancera et al., 2005, J Virol. 79:9954-9969). Cells were spun down and supernatant sterile filtered. Supernatant was purified over an F105-antibody column (NHS-activated Sepharose, Amersham; F 105 antibody coupled according to manufacturer's instructions). […] Supernatant from the hollow fiber bioreactor was purified with an SP-column and bound fractions were then run over a Q-column. Unbound material was concentrated and analysed by SDS-PAGE. The gp120 proteins from HIV-1 SF162 and HIV-192UG037-08 were used in previous inhibitor binding studies (Cocklin et al., 2007, J Virol. 81:3645-3648); HIV-1SF162 gp120 was obtained through NIH AIDS Research and Reference Reagent Program from DAIDS and NIAID, while HIV-192UG037-08 gp120 was a gift as reported in Cocklin et al. (2007, J Virol. 81:3645-3648). The following monoclonal antibodies were obtained through the NIH AIDS Research and Reference Reagent Program: 2G12 from Dr Hermann Katinger; F105 from Dr Marshall Posner and Dr Lisa Cavacini; b12 from Dr Dennis Burton and Carlos Barbas.

[2] = target: gp120 binding to both host cell receptors (CD4 and CCR5) (Human immunodeficiency virus type 1 group M subtype B, UniProt P35961); assay: Dual antagonism of gp120 binding to host cell receptors; set-up: species or system HIV-1; conditions: inhibiting gp120 binding to CD4 and CCR5
gp120YU2 = target: T1, gp120YU2 (Human immunodeficiency virus type 1 group M subtype B, UniProt P35961); assay type: binding, HIV-1; conditions: HNG-156 at the concentrations tested (0.6 μM elsewhere in the source)
T1 construct: for HIV-1 YU2 gp 120 envelope protein; made in house; host or cells: Drosophila S2 cells
Protocol: b12 binding to gp120YU2 was assayed by SPR using a Biacore 3000 instrument. […] Buffer (PBS+0.005% Tween-20) injection and control surface responses were subtracted from the injection of gp120 over b12 and binding sensorgrams were obtained.
Inhibition curves were generated from response at the end of association. b12 was injected at 100 ul/min with 2.5 min. association and 2 min. dissociation and binding curves were generated from responses at the 100th second of dissociation.
100 ng gp120YU2 was adsorbed to wells. […] Bound antibody was detected with species specific secondary antibody-HRP, and read with OPD assay at 450 nm.

[3] = test system: interaction between gp120 and four-domain soluble CD4 (4dCD4); conditions: cited from earlier work
[4] = test system: interaction between gp120 and 17b; conditions: cited from earlier work
[5] = test system: M-tropic and T-tropic strains of HIV-1, SIV, FIV; conditions: cited from earlier work
HIV-1 BaL = conditions: recombinant CV-N; cited from earlier work
SHIV89.6P = conditions: cited from earlier work
[6] = female macaques; cited from earlier work

CC[C@H](C)[C@H](NC(=O)[C@@H](N)CCCNC(=N)N)C(=O)N[C@@H](CC(N)=O)C(=O)N[C@@H](CC(N)=O)C(=O)N[C@H](C(=O)N1C[C@@H](n2cc([C]34[CH]5[CH]6[CH]7[CH]3[Fe]6754389%10[CH]4[CH]3[CH]8[CH]9[CH]4%10)nn2)C[C@H]1C(=O)N[C@@H](Cc1c[nH]c2ccccc12)C(=O)N[C@@H](CO)C(=O)N[C@@H](CCC(=O)O)C(=O)N[C@@H](C)C(=O)N[C@@H](CCSC)C(=O)N[C@@H](CCSC)C(N)=O)[C@@H](C)CC (stereo partly drawn) [HNG-156, RINNIXWSEAMM, where residue 6 is (2s, 4s)-4-(4-ferrocenyl-1H-1, 2, 3-triazol-1-yl) pyrrolidine-2-carboxylic acid]
affinity for gp 120 from two other HIV-1 strains [1]: similarly high affinity
dual antagonism function [2]: dual antagonism function
mAb F105 binding inhibition (gp120YU2): inhibited to near completion

CC[C@H](C)[C@H](NC(=O)[C@@H](N)CCCNC(=N)N)C(=O)N[C@@H](CC(N)=O)C(=O)N[C@@H](CC(N)=O)C(=O)N[C@H](C(=O)N1C[C@@H](n2cc(-c3cccc4ccccc34)nn2)C[C@H]1C(=O)N[C@@H](Cc1c[nH]c2ccccc12)C(=O)N[C@@H](CO)C(=O)N[C@@H](CCC(=O)O)C(=O)N[C@@H](C)C(=O)N[C@@H](CCSC)C(=O)N[C@@H](CCSC)C(N)=O)[C@@H](C)CC [HNG-125]
dual antagonism function [2]: dual antagonism function

CC[C@H](C)[C@H](NC(=O)[C@@H](N)CCCNC(=N)N)C(=O)N[C@@H](CC(N)=O)C(=O)N[C@@H](CC(N)=O)C(=O)N[C@H](C(=O)N1CCC[C@H]1C(=O)N[C@@H](Cc1c[nH]c2ccccc12)C(=O)N[C@@H](CO)C(=O)N[C@@H](CCC(=O)O)C(=O)N[C@@H](C)C(=O)N[C@@H](CCSC)C(=O)N[C@@H](CCSC)C(=O)O)[C@@H](C)CC [12p1]
inhibition of the gp120-4dCD4 interaction [3]: found to inhibit
inhibition of the gp120-17b interaction [4]: found to inhibit

B1: CV-N: 11 kD protein originally isolated from the cyanobacteria Nostoc ellipsosporum (protein)
chain: LGKFSQTCYNSAIQGSVLTSTCERTNGGYNTSSIDLNSVIENVDGSLKWQPSNFIETCRNTQLAGSSELAAECKTRAQQFVSTKINLDDHIANIDGTLKYE
inactivation of virus strains [5]: inactivates a broad range of M-tropic and T-tropic strains
cytotoxic effects in ectocervical explants (HIV-1 BaL): without cytotoxic effects
infection of human ectocervical explants (HIV-1 BaL): blocks HIV-1 BaL infection
protection against virus challenge (SHIV89.6P; gel formulations applied rectally, male macaques): protected against challenge
clinically adverse effects (SHIV89.6P; rectal and vaginal macaque in vivo assays): no clinically adverse effects
in vivo efficacy, vaginal challenge [6]: In vivo efficacy has also be shown
